Columns and labels:
[1] = test system: all other methyltransferases in the panel; conditions: panel other than G9a, GLP, SETD2, EZH2
[2] = molecular target: GLP (G9a-like protein, EHMT1) (Homo sapiens, UniProt Q9H9B1); conditions: compared with G9a
[3] = molecular target: G9a (Homo sapiens, UniProt Q96KQ7); conditions: SPA assay
[4] = Henderson–Hasselbalch equation, assay conditions pH 8
[5] = molecular target: SETD2 (Homo sapiens, UniProt Q9BYW2); conditions: at the highest concentrations surveyed (50 μM)
Sequence of SETD2 (Q9BYW2 whole entry, species assumed): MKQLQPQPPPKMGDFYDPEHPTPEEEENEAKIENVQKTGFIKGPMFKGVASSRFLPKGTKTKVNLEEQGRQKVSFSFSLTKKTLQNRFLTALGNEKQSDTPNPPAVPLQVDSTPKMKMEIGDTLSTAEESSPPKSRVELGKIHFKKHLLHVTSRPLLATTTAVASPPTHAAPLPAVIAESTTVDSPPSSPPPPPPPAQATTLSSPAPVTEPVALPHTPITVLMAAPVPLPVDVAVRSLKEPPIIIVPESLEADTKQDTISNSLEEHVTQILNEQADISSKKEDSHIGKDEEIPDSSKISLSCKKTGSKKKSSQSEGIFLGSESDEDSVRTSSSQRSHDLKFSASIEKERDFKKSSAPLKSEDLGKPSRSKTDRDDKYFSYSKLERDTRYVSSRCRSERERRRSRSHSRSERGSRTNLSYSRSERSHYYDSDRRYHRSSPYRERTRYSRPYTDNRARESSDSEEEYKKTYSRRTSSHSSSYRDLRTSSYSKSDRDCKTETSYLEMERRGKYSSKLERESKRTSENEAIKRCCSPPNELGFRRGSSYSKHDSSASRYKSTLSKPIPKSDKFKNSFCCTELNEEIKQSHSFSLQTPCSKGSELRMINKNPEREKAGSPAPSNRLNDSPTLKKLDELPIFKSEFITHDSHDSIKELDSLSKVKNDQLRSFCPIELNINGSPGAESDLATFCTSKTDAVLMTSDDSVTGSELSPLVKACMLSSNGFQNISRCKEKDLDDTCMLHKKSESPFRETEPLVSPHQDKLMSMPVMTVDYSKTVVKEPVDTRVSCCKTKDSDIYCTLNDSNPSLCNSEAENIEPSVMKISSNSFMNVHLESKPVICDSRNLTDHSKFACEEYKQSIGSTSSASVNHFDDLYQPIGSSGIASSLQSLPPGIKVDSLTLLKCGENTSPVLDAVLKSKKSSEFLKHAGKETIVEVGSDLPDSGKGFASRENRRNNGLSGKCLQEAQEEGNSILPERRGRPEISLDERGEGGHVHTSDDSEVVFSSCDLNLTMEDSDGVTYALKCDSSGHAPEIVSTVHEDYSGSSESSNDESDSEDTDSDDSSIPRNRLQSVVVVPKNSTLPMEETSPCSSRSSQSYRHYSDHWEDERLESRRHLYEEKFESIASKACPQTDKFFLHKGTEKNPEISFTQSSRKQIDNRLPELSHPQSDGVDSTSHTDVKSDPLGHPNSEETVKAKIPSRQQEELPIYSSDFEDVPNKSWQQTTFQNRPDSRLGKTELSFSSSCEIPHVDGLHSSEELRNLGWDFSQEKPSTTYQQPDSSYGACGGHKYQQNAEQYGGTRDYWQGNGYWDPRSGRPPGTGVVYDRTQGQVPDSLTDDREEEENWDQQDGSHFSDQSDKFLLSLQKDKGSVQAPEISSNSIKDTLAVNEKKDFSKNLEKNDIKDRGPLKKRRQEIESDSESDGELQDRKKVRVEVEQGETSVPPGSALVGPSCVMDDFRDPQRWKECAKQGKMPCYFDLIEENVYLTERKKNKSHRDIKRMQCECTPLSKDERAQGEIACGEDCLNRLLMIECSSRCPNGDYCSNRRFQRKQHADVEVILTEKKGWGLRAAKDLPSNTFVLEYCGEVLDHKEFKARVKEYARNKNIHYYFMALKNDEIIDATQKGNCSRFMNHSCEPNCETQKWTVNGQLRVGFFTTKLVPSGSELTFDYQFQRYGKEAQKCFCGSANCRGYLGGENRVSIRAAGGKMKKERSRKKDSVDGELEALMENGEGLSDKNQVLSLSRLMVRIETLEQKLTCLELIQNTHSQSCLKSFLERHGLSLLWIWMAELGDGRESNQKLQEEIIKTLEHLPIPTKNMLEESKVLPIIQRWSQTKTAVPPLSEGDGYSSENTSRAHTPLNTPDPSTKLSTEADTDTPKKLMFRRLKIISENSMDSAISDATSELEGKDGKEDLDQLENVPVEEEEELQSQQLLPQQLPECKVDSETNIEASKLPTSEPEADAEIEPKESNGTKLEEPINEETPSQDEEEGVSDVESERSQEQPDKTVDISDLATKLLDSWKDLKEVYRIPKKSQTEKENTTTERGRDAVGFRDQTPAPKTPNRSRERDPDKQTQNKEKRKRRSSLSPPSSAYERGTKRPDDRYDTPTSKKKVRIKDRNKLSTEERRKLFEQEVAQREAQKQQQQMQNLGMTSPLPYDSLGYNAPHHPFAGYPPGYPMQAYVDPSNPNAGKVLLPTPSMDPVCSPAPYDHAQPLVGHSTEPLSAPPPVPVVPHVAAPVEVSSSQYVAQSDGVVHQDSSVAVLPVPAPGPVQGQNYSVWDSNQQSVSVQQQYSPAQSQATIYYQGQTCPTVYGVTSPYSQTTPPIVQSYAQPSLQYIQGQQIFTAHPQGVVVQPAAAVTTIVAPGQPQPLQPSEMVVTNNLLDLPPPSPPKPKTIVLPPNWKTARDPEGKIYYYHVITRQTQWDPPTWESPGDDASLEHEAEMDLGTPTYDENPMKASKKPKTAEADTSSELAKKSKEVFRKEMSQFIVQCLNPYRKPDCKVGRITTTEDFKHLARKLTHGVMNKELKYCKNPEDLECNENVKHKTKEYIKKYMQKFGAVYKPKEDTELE

[6] = molecular target: EZH2 (Homo sapiens, UniProt Q15910); conditions: at the highest concentrations surveyed (50 μM)

Sequence of GLP (G9a-like protein, EHMT1) (Q9H9B1 whole entry): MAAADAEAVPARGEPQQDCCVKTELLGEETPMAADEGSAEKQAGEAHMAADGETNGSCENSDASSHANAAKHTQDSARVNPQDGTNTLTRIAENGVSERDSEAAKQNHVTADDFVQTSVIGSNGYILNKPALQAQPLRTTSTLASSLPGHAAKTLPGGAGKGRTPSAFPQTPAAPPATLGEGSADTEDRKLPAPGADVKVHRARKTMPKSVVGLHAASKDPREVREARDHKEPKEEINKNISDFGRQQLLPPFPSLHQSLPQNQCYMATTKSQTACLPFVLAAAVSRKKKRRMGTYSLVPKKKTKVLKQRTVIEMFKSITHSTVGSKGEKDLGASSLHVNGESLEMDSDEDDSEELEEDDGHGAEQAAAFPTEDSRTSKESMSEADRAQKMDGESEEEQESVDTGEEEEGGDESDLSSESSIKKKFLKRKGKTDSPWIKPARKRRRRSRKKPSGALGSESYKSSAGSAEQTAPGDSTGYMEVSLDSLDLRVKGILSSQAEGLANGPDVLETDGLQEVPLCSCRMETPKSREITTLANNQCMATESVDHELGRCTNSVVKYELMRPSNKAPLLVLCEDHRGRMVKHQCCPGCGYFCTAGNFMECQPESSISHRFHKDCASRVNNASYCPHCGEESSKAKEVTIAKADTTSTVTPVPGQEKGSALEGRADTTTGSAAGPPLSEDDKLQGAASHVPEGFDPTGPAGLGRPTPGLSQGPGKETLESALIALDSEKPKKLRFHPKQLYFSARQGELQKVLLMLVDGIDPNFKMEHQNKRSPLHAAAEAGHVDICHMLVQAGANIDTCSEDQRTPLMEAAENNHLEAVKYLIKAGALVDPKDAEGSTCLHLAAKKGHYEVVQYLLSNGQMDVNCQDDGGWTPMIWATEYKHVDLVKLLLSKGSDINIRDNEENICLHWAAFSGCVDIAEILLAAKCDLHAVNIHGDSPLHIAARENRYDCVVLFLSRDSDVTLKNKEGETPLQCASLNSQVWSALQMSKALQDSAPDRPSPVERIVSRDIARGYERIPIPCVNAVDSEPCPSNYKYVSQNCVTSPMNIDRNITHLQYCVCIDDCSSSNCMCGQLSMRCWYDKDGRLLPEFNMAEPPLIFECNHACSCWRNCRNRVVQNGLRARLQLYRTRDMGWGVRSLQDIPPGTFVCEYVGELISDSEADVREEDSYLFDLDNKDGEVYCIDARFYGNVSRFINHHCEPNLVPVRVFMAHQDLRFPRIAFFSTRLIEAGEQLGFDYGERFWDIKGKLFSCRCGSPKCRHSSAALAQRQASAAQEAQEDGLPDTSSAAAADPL
Sequence of G9a (Q96KQ7 whole entry): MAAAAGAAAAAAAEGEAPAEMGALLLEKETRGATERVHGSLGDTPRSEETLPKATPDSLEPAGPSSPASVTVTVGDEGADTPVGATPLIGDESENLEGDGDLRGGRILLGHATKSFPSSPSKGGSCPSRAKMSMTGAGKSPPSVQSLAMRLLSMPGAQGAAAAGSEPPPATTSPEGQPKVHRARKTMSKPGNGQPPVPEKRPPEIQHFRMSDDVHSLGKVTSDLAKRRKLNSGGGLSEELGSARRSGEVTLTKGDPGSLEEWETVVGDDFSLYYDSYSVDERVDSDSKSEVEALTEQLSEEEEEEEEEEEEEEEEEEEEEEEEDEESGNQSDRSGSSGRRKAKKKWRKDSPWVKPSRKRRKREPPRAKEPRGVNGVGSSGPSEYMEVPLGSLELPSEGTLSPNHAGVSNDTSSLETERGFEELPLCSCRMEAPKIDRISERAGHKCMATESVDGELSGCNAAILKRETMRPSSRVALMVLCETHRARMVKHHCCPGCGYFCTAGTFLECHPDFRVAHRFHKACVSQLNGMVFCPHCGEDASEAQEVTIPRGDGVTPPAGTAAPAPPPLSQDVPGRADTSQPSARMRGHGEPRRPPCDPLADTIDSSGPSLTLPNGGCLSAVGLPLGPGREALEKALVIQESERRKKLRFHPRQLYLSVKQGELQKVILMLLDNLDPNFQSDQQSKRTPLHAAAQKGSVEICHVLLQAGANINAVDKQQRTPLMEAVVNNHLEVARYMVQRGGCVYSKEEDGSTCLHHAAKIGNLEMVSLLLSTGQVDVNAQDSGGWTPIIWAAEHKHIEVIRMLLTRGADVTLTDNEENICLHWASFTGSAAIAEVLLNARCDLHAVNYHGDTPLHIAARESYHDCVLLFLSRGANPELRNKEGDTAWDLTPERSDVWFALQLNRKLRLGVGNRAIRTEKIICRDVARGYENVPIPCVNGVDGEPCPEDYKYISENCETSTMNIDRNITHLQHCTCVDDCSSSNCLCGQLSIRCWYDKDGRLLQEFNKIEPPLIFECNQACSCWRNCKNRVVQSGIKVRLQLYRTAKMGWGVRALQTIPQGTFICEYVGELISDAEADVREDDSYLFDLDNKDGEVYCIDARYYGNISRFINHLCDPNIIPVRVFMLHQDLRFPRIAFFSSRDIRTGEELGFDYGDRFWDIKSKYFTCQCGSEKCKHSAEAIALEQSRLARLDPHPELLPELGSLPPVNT

## COc1cc2nc(N3CCCN(C)CC3)cc(NC3CCN(Cc4ccccc4)CC3)c2cc1OC [Compound 41]
[1]
  activity against all other methyltransferases in the panel (in words): inactive
[2]
  activity against GLP (in words): equipotent against G9a and GLP
[3]
  G9a inhibitory activity (in words): significant activity
[4]
  N-1 protonated form: 96.9%
[5]
  activity against SETD2 (in words): moderate inhibitory activity
[6]
  activity against EZH2 (in words): moderate inhibitory activity

## COc1cc2nc(N3CCCN(C)CC3)nc(NC3CCN(Cc4ccccc4)CC3)c2cc1OC [Compound 1, BIX-01294, reference compound]
[2]
  activity against GLP (in words): dual G9a/GLP activity
[4]
  N-1 protonated form: 8.0%

## COc1cc2nc(N3CCN(C)CC3)cc(NC3CCN(Cc4ccccc4)CC3)c2cc1OC [Compound 42]
[1]
  activity against all other methyltransferases in the panel (in words): inactive
[2]
  activity against GLP (in words): equipotent against G9a and GLP
[3]
  G9a inhibitory activity (in words): significant activity
[5]
  activity against SETD2 (in words): moderate inhibitory activity
[6]
  activity against EZH2 (in words): moderate inhibitory activity
